The values that follow come from PMC6426682 (ACS chemical neuroscience, 2018).

For experiment [1], the target named is T1, CB1 receptor (Mus musculus, UniProt P47746). The experiment can be described thus: [3H]SR141716 equilibrium radioligand binding. As to conditions: for remaining activity at 32 µM: 1.5 h, read-out: %[3H]SR141716 Binding ± S.E.; for effect on [3H]SR141716 binding (in words): 1 nM [3H]SR141716.
Experiment [2] has as its target T1, CB1 receptor. Briefly: [3H]CP55,940 equilibrium radioligand binding. As to conditions: for [3H]CP55,940 Curve-fit top ± S.E.: mouse cerebellar membranes.
Another experiment addresses human CB1 receptor (Homo sapiens, UniProt P21554). The experiment can be described thus: CB1 calcium mobilization assay. Type of experiment: cell-based. As to conditions: for IC50: CB1 Calcium assay IC50, against EC80 (100 nM) of CP55,940 in stable human CB1-CHO-RD-HGA16 cells, mean ± SEM; for fold reduction in potency compared to 1, CB1 calcium assay: relative to 1.
The conditions of experiment [3]: cited from earlier work.
For experiment [4] the following is noted: in vivo; cited from earlier work.
The subject of a further experiment is rats. Particulars: cited from earlier work.
In experiment [5] the target is T1, CB1 receptor. The experiment can be described thus: [3H]CP55,940 saturation binding in presence of allosteric modulator. As to conditions: Bmax of the radioligand at 10 μM of test compound; vehicle 1.56 ± 0.09.
Experiment [6] has as its target T1, CB1 receptor. Briefly: Agonist-stimulated [35S]GTP-γ-S binding assay in mouse cerebellar membranes. Type of experiment: biochemical. (Binding of GTPγS marks nucleotide exchange on a G protein.)
For experiment [7], the target named is uncoupled low affinity receptor (CB1). Particulars: read-out: Ki for the uncoupled low affinity receptor; cited from earlier work.

T1 sequence (P47746 whole entry): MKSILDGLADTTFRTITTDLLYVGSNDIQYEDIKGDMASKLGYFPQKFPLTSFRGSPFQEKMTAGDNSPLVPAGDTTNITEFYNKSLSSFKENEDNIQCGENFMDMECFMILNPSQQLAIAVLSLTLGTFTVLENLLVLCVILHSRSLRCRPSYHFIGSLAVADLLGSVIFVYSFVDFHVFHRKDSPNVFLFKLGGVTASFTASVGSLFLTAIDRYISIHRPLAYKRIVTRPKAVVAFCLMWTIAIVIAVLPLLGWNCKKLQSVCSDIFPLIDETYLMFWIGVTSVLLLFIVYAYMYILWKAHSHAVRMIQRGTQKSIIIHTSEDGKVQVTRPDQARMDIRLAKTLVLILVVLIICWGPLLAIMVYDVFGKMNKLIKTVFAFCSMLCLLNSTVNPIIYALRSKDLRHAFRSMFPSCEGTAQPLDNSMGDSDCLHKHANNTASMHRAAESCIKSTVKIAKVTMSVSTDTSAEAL
Sequence of human CB1 receptor (P21554 whole entry): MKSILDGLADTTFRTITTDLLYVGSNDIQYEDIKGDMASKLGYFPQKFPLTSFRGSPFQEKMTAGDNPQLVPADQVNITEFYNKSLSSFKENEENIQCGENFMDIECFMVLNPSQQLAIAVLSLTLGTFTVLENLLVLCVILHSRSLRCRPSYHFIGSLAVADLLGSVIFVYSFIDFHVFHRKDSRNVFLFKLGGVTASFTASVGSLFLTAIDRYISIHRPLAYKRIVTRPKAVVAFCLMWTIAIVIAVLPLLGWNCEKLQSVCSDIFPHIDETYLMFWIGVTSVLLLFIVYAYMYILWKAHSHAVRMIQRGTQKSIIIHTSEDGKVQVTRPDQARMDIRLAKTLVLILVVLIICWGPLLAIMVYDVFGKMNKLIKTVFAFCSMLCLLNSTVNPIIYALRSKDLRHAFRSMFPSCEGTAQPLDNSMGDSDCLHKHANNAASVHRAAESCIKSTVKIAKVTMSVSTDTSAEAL

As for `O=C(Nc1ccc(Cl)cc1)Nc1cccc(-c2cccs2)c1` [Compound 10, 3‐(4‐Chlorophenyl)‐1‐[3‐(thiophen‐2‐yl)phenyl]urea], at CB1 receptor [1], the IC50 was 28.8 µM and the remaining activity at 32 µM was 45.54 ± 0.15%. The compound further had an EC50 on CB1 receptor [2] of 5.75 µM. For the same compound, the “[3H]CP55,940 Curve-fit top ± S.E.” value at CB1 receptor [2] (1 nM [3H]CP55,940) stood at 199.8 ± 8.78.
As to `O=C(Nc1ccc(Cl)cc1)Nc1cccc(-c2ccsc2)c1` [Compound 9, 3‐(4‐Chlorophenyl)‐1‐[3‐(thiophen‐3‐yl)phenyl]urea], on CB1 receptor [1], the IC50 is 11.2 µM and the remaining activity at 32 µM was 20.4 ± 2.13%. On CB1 receptor [2], this compound showed an EC50 of 4.57 µM. Further, the “[3H]CP55,940 Curve-fit top ± S.E.” value on CB1 receptor [2] (1 nM [3H]CP55,940) is 264.6 ± 9.81.
`Cn1cccc1-c1cccc(NC(=O)Nc2ccc(Cl)cc2)c1` [Compound 14, 3‐(4‐Chlorophenyl)‐1‐[3‐(1‐methyl‐1H‐pyrrol‐2‐yl)phenyl]urea]: at CB1 receptor [1], the IC50 is 17.8 µM and the remaining activity at 32 µM worked out at 41.4 ± 3.26%. Besides, a half-maximal effect at CB1 receptor [2] (EC50) was put at 5.62 µM. Besides, the “[3H]CP55,940 Curve-fit top ± S.E.” value at CB1 receptor [2] (1 nM [3H]CP55,940) stood at 164.5 ± 8.61. In addition, on human CB1 receptor, the IC50 lay in the range of 0.165 to 0.169 µM and the “fold reduction in potency compared to 1, CB1 calcium assay” value (“fold reduction … CB1 calcium assay” below) is “about 3 fold”.
Take `O=C(Nc1ccc(Cl)cc1)Nc1cccc(-c2cccc(N3CCCC3)n2)c1` [Compound 1, 1-(4-Chlorophenyl)-3-{3-[6-(pyrrolidin-1-yl)pyridin-2-yl]phenyl}urea, reference compound]: in experiment [3], the tetrahydrocannabinol-induced anti-nociception entry is reported as “attenuated tetrahydrocannabinol-induced anti-nociception”. Also, at CB1 receptor [1], the IC50 is 12.3 µM and the remaining activity at 32 µM was determined as 20.4 ± 3.05%. Also, the “food intake and body weight” value in [4] is “demonstrated efficacy in reducing food intake and body weight”. On CB1 receptor [2], this compound gave an EC50 of 2.04 µM. On CB1 receptor [2] (1 nM [3H]CP55,940), the “[3H]CP55,940 maximum binding level” value is recorded as 256%. On CB1 receptor [2] (1.5 h, read-out: [3H]CP55,940 Curve-fit top ± S.E.), the Emax is 256 ± 5.59%. Besides, the “prime-induced reinstatement of extinguished cocaine-seeking behavior” value in the experiment on rats is recorded as “attenuated prime-induced reinstatement of extinguished cocaine-seeking behavior in rats”. The “[3H]CP55,940 Bmax ± S.E.” value on CB1 receptor [5] was found to be 4.53 ± 0.29 pmol/mg.
`O=C(Nc1ccc(Cl)cc1)Nc1cccc(-c2cncs2)c1` [Compound 17, 3‐(4‐Chlorophenyl)‐1‐[3‐(1,3‐thiazol‐5‐yl)phenyl]urea]: on CB1 receptor [1], the IC50 was 2.95 µM and the remaining activity at 32 µM worked out at 50.6 ± 2.04%. A half-maximal effect on CB1 receptor [2] (EC50) was put at 6.46 µM. Moreover, the “[3H]CP55,940 Curve-fit top ± S.E.” value at CB1 receptor [2] (1 nM [3H]CP55,940) is 181.2 ± 8.15. Moreover, at CB1 receptor [5], the “[3H]CP55,940 Bmax ± S.E.” value worked out at 3.57 ± 0.25 pmol/mg.
Consider `Cc1ccc(-c2cccc(NC(=O)Nc3ccc(Cl)cc3)c2)s1` [Compound 12, 3‐(4‐Chlorophenyl)‐1‐[3‐(5‐methylthiophen‐2‐yl)phenyl]urea], for which, on CB1 receptor [1], the 50% inhibitory concentration (IC50) is 22.9 µM, the “effect on [3H]SR141716 binding (in words)” value is “only exhibited a slight reduction in [^3H]SR141716 binding” and the remaining activity at 32 µM was 86.9 ± 5.87%. This compound also had an EC50 on CB1 receptor [2] of 13.2 µM. Also, on CB1 receptor [2] (1 nM [3H]CP55,940), the “[3H]CP55,940 Curve-fit top ± S.E.” value came to 233.3 ± 20.53.
For `Cc1cc(-c2cccc(NC(=O)Nc3ccc(Cl)cc3)c2)cs1` [Compound 11, 3‐(4‐Chlorophenyl)‐1‐[3‐(5‐methylthiophen‐3‐yl)phenyl]urea], on CB1 receptor [1], the IC50 is 83.2 µM, the “effect on [3H]SR141716 binding (in words)” value is “only exhibited a slight reduction in [^3H]SR141716 binding” and the remaining activity at 32 µM is 73.2 ± 5.77%. At CB1 receptor [2], this compound had an EC50 of 3.89 µM. Moreover, the “[3H]CP55,940 Curve-fit top ± S.E.” value on CB1 receptor [2] (1 nM [3H]CP55,940) is 226.0 ± 5.82. Moreover, the “[3H]CP55,940 Bmax ± S.E.” value on CB1 receptor [5] is reported as 3.64 ± 0.17 pmol/mg. Besides, the “fold reduction in inhibitory potency on introduction of a methyl group, GTP-γ-S assay” value at CB1 receptor [6] (relative to the 3-thiophenyl analogue (9)) came out at 5 fold.
For the compound `O=C(Nc1ccc(Cl)cc1)Nc1cccc(-c2nccs2)c1` [Compound 18, 3‐(4‐Chlorophenyl)‐1‐[3‐(1,3‐thiazol‐2‐yl)phenyl]urea], on CB1 receptor [1], the IC50 is 16.6 µM and the remaining activity at 32 µM was determined as 37.7 ± 0.76%. On CB1 receptor [2], this compound showed an EC50 of 5.13 µM. Also, the “[3H]CP55,940 Curve-fit top ± S.E.” value on CB1 receptor [2] (1 nM [3H]CP55,940) is recorded as 134.2 ± 4.47.
For `O=C(Nc1ccc(Cl)cc1)Nc1cccc(-c2cscn2)c1` [Compound 16, 3‐(4‐Chlorophenyl)‐1‐[3‐(1,3‐thiazol‐4‐yl)phenyl]urea] the same measures were 25.7 µM, 44.3 ± 1.42%, 10.7 µM and 224.2 ± 15.85.
`O=C(Nc1ccc(Cl)cc1)Nc1cccc(-c2ccoc2)c1` [Compound 8, 3‐(4‐Chlorophenyl)‐1‐[3‐(furan‐3‐yl)phenyl]urea]: on CB1 receptor [1], the IC50 is 17.4 µM and the remaining activity at 32 µM was 34.9 ± 2.43%. The compound further showed a 50% effective concentration (EC50) at CB1 receptor [2] of 7.41 µM. Besides, the “[3H]CP55,940 Curve-fit top ± S.E.” value on CB1 receptor [2] (1 nM [3H]CP55,940) turned out to be 174.1 ± 8.86. In addition, the “[3H]CP55,940 Bmax ± S.E.” value at CB1 receptor [5] is recorded as 3.22 ± 0.19 pmol/mg. Besides, on CB1 receptor [6] (relative to 1), the “fold less potent than 1 in the GTP-γ-S assay” value was ~ 4 fold.
As for `O=C(Nc1ccc(Cl)cc1)Nc1cccc(-c2ncc[nH]2)c1` [Compound 19, 3‐(4‐Chlorophenyl)‐1‐[3‐(1H‐imidazol‐2‐yl)phenyl]urea], on CB1 receptor [1], the IC50 was 123 µM and the remaining activity at 32 µM is 34.8 ± 8.94%. The compound further had an EC50 at CB1 receptor [2] of 10.2 µM. For the same compound, on CB1 receptor [2] (1 nM [3H]CP55,940), the “[3H]CP55,940 maximum binding level” value worked out at 355% and the “[3H]CP55,940 Curve-fit top ± S.E.” value is 355.7 ± 27.39. Besides, on human CB1 receptor, the “fold reduction … CB1 calcium assay” value was “around 16 fold”.
Consider `CCCCCCC(C)(C)c1ccc([C@@H]2C[C@H](O)CC[C@H]2CCCO)c(O)c1` [CP55,940], for which the Ki in [7] is around 0.1 µM.
On to `O=C(Nc1ccc(Cl)cc1)Nc1cccc(-c2ccc[nH]2)c1` [Compound 13, 3‐(4‐Chlorophenyl)‐1‐[3‐(1H‐pyrrol‐2‐yl)phenyl]urea], for which, at CB1 receptor [1], the half-maximal inhibitory concentration (IC50) was 14.1 µM and the remaining activity at 32 µM was 26.6 ± 5.68%. On CB1 receptor [2], this compound gave an EC50 of 1.38 µM. In addition, at CB1 receptor [2] (1 nM [3H]CP55,940), the “[3H]CP55,940 maximum binding level” value is listed as 458% and the “[3H]CP55,940 Curve-fit top ± S.E.” value stood at 458.3 ± 16.25. In addition, the “fold increase of [3H]CP55,940 binding level compared to 1” value at CB1 receptor [2] (relative to 1) is given as “more than 2 fold”. The “[3H]CP55,940 Bmax ± S.E.” value at CB1 receptor [5] is reported as 5.87 ± 0.15 pmol/mg. At human CB1 receptor, the IC50 was in the range of 0.165 to 0.169 µM and the “fold reduction … CB1 calcium assay” value is reported as “about 3 fold”.
Regarding `CC(C)(C)OC(=O)n1cccc1-c1cccc(NC(=O)Nc2ccc(Cl)cc2)c1` [Compound 15], the results for the IC50 on CB1 receptor [1], at human CB1 receptor and on CB1 receptor [6] were 8.51 µM, 3.44 ± 0.451 µM and 3.24 µM, respectively. Further, the remaining activity at 32 µM at CB1 receptor [1] came out at 17.2 ± 4.12%. The compound further showed an EC50 at CB1 receptor [2] of 14.8 µM. For the same compound, the “effect on [3H]CP55,940 binding (in words)” value at CB1 receptor [2] (1 nM [3H]CP55,940) was “significantly decreased the binding of the radioligand”. In addition, the “[3H]CP55,940 Curve-fit top ± S.E.” value at CB1 receptor [2] (1 nM [3H]CP55,940) is given as 15.5 ± 24.12.

By IC50 is commonly meant the concentration at which inhibition is half-maximal. Usually EC50 stands for the concentration giving half of the maximal effect. The low end stands for higher potency in that assay, the high end for lower potency in that assay. In general, Ki refers to the dissociation constant of the complex between target and ligand, obtained from inhibition or displacement.
